Test systems include NCI-H460 lung; UACC-257 melanoma; MDA-MB-435; U251 CNS; PC-3 prostate; HT29 colon; MDA-MB-231 breast; IGROV1 ovarian; RXF 393 renal; MOLT-4 leukemia.
Experiment in all cases: inhibition of tumour cell growth, NCI panel, 48 h

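Grown in 96-well plates, cells were treated for 48 hours with each compound at five concentrations. Insufficient inhibition: endpoint recorded as highest concentration tested. The concentration for full growth arrest is given as TGI.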 Where a SMILES comes first, the peptide text is derived from it. [ ]: non-standard residue; d: D form. The star is where a group is joined. ξ: configuration not given here. X37 = O=C(OCc1ccccc1)[C@@H]1CCC[C@H]1N*; Fmoc = O=C(OCC1c2ccccc2-c2ccccc21)*; ξW = NC(Cc1c[nH]c2ccccc12)C(=O)O; ξF = NC(Cc1ccccc1)C(=O)O; Boc = CC(C)(C)OC(=O)*; ξK = NCCCCC(N)C(=O)O; ξT = CC(O)C(N)C(=O)O; tBu = CC(C)(C)* Where only a bound is given, the exact number is not on record here.

Consider `Fc1ccc(C(=NCc2ccccc2)N2CCOCC2)cc1`, for which the TGI with NCI-H460 lung, with UACC-257 melanoma, in the assay with MDA-MB-435, in the assay on U251 CNS, in the assay with PC-3 prostate and with HT29 colon was over 100 µM each time. Moreover, the TGI in the assay on MDA-MB-231 breast, with IGROV1 ovarian, in the assay with RXF 393 renal and in the assay on MOLT-4 leukemia was over 100 µM each time.

As for `O=C(/C=C1\N=C(c2ccccc2)N(c2ccc3c(c2)Sc2cc(N4C(=O)/C(=C/C(=O)/C=C/c5ccccc5)N=C4c4ccccc4)ccc2N3)C1=O)/C=C/c1ccccc1`, the TGI was over 100 µM in the assay with NCI-H460 lung; 83 µM with UACC-257 melanoma; 44.4 µM with MDA-MB-435; 57.8 µM in the assay on U251 CNS; 37.6 µM in the assay on PC-3 prostate; over 100 µM in the assay with HT29 colon. Further, the TGI in the assay with MDA-MB-231 breast was 90 µM; in the assay with IGROV1 ovarian, over 100 µM; in the assay on RXF 393 renal, over 100 µM; in the assay on MOLT-4 leukemia, over 100 µM.

For the compound `CC(C)C[C@H](NC(=O)[C@@H](Cc1cccc2ccccc12)NC(=O)N1CCOCC1)B(O)O`, the TGI with NCI-H460 lung came out at 40.6 µM; in the assay with UACC-257 melanoma, 5.18 µM; with MDA-MB-435 it was 3.79 µM; in the assay with U251 CNS it was 17.7 µM; in the assay on PC-3 prostate it was 24.9 µM; with HT29 colon it was 8.86 µM. In addition, the TGI in the assay on MDA-MB-231 breast is 20.3 µM; in the assay with IGROV1 ovarian, 23.5 µM; in the assay on RXF 393 renal, 6.8 µM; with MOLT-4 leukemia it was over 100 µM.

For the compound `CC(OC(C)(C)C)C(NC(=O)C(CCCCNC(=O)OC(C)(C)C)NC(=O)C(Cc1c[nH]c2ccccc12)NC(=O)C(Cc1ccccc1)NC(=O)OCC1c2ccccc2-c2ccccc21)C(=O)NC(Cc1ccccc1)C(=O)N[C@@H]1CCC[C@H]1C(=O)OCc1ccccc1` (stereo not given in full) (Fmoc-[ξF][ξW][ξK](Boc)[ξT](tBu)[ξF]-X37), the TGI in the assay with NCI-H460 lung, in the assay on UACC-257 melanoma, in the assay with MDA-MB-435, in the assay with U251 CNS, in the assay with PC-3 prostate and in the assay on HT29 colon was over 100 µM each time. Further, the TGI in the assay on MDA-MB-231 breast, in the assay with IGROV1 ovarian, in the assay on RXF 393 renal and in the assay with MOLT-4 leukemia was over 100 µM in each case.

For the compound `CC1(C)OC1CC/C(=C/CBr)CBr` (stereo not given), the TGI is 29 µM with NCI-H460 lung; 28.8 µM in the assay on UACC-257 melanoma; 31.9 µM in the assay on MDA-MB-435; 29.3 µM in the assay on U251 CNS; 29.3 µM in the assay with PC-3 prostate; 30 µM in the assay with HT29 colon. Besides, the TGI was 30.1 µM with MDA-MB-231 breast, 27.3 µM in the assay on IGROV1 ovarian, 31.2 µM in the assay with RXF 393 renal and 57.9 µM with MOLT-4 leukemia.

On to `Cc1ccc(S(=O)/C=C(\NC(=O)OCc2ccccc2)C(F)(F)F)cc1` (stereo not given), for which the TGI is over 100 µM with NCI-H460 lung; over 100 µM with UACC-257 melanoma; over 100 µM with MDA-MB-435; 55.2 µM with U251 CNS; over 100 µM with PC-3 prostate; over 100 µM with HT29 colon. Also, the TGI in the assay on MDA-MB-231 breast, with IGROV1 ovarian, in the assay with RXF 393 renal and in the assay with MOLT-4 leukemia was over 100 µM in each case.

With `OC1(c2ccc(Cl)cc2)c2ccccc2C2=Nc3ccccc3CN21` (stereo not given), the TGI is over 100 µM in the assay with NCI-H460 lung; over 100 µM with UACC-257 melanoma; over 100 µM in the assay with MDA-MB-435; over 100 µM in the assay with U251 CNS; over 100 µM with PC-3 prostate; 33.8 µM in the assay on HT29 colon. Also, the TGI in the assay on MDA-MB-231 breast was over 100 µM; in the assay on IGROV1 ovarian it was over 81.3 µM; with RXF 393 renal, 55.4 µM; in the assay on MOLT-4 leukemia it was over 100 µM.

As for `COC(=O)C1Cc2c([nH]c3ccccc23)-c2[nH]c3ccccc3c2CC(NC(C)=O)C(=O)NCC(=O)N1` (stereo not given), the TGI in the assay with NCI-H460 lung, in the assay with UACC-257 melanoma, in the assay with MDA-MB-435, in the assay on U251 CNS, with PC-3 prostate and in the assay on HT29 colon was over 100 µM in each case. The TGI in the assay with MDA-MB-231 breast, with IGROV1 ovarian, in the assay with RXF 393 renal and in the assay on MOLT-4 leukemia was over 100 µM throughout.

Take `CC(=O)c1nc2ccccc2n1CC(=O)c1ccc([N+](=O)[O-])cc1`: the TGI in the assay on NCI-H460 lung was 68.6 µM; with UACC-257 melanoma it was over 100 µM; with MDA-MB-435, over 100 µM; in the assay on U251 CNS, 19.9 µM; with PC-3 prostate, 44.4 µM; in the assay on HT29 colon, 46 µM. Besides, the TGI in the assay on MDA-MB-231 breast was over 100 µM; with IGROV1 ovarian it was 14.5 µM; in the assay on RXF 393 renal, over 100 µM; with MOLT-4 leukemia it was 84.5 µM.

Regarding `CC(=O)NC1C(OCC(=O)NC(C)C(=O)NC(CCC(=O)NCCCCCNc2ccc([N+](=O)[O-])c3[nH]c4ccccc4c(=O)c23)C(N)=O)C(O)C(CO)OC1(C)OCc1ccccc1` (stereo not given), the TGI with NCI-H460 lung, in the assay with UACC-257 melanoma, in the assay on MDA-MB-435, in the assay with U251 CNS, with PC-3 prostate and in the assay with HT29 colon was over 50 µM in each case. Besides, the TGI in the assay on MDA-MB-231 breast is 31.4 µM; in the assay with IGROV1 ovarian, over 50 µM; with RXF 393 renal, 19.5 µM; in the assay with MOLT-4 leukemia, over 50 µM.

In the case of `CCC1=C(C)C2=NC1=CC1=NC(=C(CC)/C1=C/O)C=C1N=C3C(=C1C)C(=O)C(C(=O)OC)C3=C1NC(=C2)C(C)C1CCC(=O)OC` (stereo not given), the TGI with NCI-H460 lung, in the assay with UACC-257 melanoma, with MDA-MB-435, in the assay on U251 CNS, with PC-3 prostate and in the assay on HT29 colon was over 100 µM in each case. The TGI with MDA-MB-231 breast, with IGROV1 ovarian, in the assay with RXF 393 renal and in the assay on MOLT-4 leukemia was over 100 µM in each case.

Take `S=C1c2cc(Cl)ccc2NC(=NC2CCCC2)C2CSCN12` (stereo not given): the TGI in the assay on NCI-H460 lung, in the assay with UACC-257 melanoma, with MDA-MB-435, in the assay on U251 CNS, in the assay with PC-3 prostate and in the assay with HT29 colon was over 100 µM in each case. Moreover, the TGI in the assay on MDA-MB-231 breast, with IGROV1 ovarian, in the assay with RXF 393 renal and with MOLT-4 leukemia was over 100 µM each time.

In the case of `COCOc1cc(OC)ccc1C=O`, the TGI was over 100 µM with NCI-H460 lung; over 100 µM with UACC-257 melanoma; 40.6 µM in the assay with MDA-MB-435; over 100 µM in the assay on U251 CNS; 88.8 µM with PC-3 prostate; 66.8 µM in the assay with HT29 colon. For the same compound, the TGI with MDA-MB-231 breast was over 100 µM; in the assay on IGROV1 ovarian, over 100 µM; with RXF 393 renal, 39.1 µM; in the assay with MOLT-4 leukemia it was over 100 µM.

For `Cc1nc2c(=O)[nH]c(=O)nc-2n(CCO)c1C`, the TGI in the assay on NCI-H460 lung, in the assay with UACC-257 melanoma, with MDA-MB-435, with U251 CNS, in the assay with PC-3 prostate and in the assay on HT29 colon was over 100 µM throughout. The TGI with MDA-MB-231 breast, in the assay on IGROV1 ovarian, with RXF 393 renal and in the assay with MOLT-4 leukemia was over 100 µM in each case.

Take `c1ccc(COc2nc3ccc(C45CC6CC(CC(C6)C4)C5)cc3[nH]2)cc1`: the TGI with NCI-H460 lung was over 71.3 µM; with UACC-257 melanoma it was over 26.4 µM; in the assay on MDA-MB-435, over 94 µM; in the assay with U251 CNS, over 78.5 µM; in the assay with PC-3 prostate it was over 100 µM; in the assay on HT29 colon it was over 100 µM. In addition, the TGI was over 80.9 µM in the assay with MDA-MB-231 breast, over 100 µM with IGROV1 ovarian, 55.8 µM in the assay with RXF 393 renal and over 66.7 µM in the assay on MOLT-4 leukemia.

As for `COc1ccc2c(c1)CC[C@@H]1C2CC[C@]2(C)OC(=O)CCC12` (stereo not given in full), the TGI with NCI-H460 lung was over 100 µM; in the assay on UACC-257 melanoma, 32.1 µM; in the assay with MDA-MB-435, over 100 µM; in the assay on U251 CNS, 21 µM; in the assay on PC-3 prostate it was 61.1 µM; with HT29 colon, 59.2 µM. The TGI in the assay on MDA-MB-231 breast is 11.5 µM; in the assay with IGROV1 ovarian it was over 100 µM; in the assay with RXF 393 renal it was 29 µM; in the assay with MOLT-4 leukemia, over 100 µM.

In the case of `O=c1[nH]c2ccc(CC(=S)N3CCN(c4ccccc4)CC3)cc2s1`, the TGI with NCI-H460 lung is 56.1 µM; with UACC-257 melanoma, over 100 µM; in the assay on MDA-MB-435, over 100 µM; in the assay on U251 CNS, 21.2 µM; in the assay on PC-3 prostate, over 100 µM; in the assay on HT29 colon it was over 100 µM. The TGI is over 100 µM with MDA-MB-231 breast, over 100 µM with IGROV1 ovarian, 46.4 µM with RXF 393 renal and over 100 µM in the assay on MOLT-4 leukemia.

Turning to `COc1ccc2c(c1)CCC(CN1CCN(CCOC(c3ccc(F)cc3)c3ccc(F)cc3)CC1)=C2`, the TGI with NCI-H460 lung was 34.2 µM; in the assay on UACC-257 melanoma, 28.1 µM; in the assay with MDA-MB-435, 68.9 µM; in the assay with U251 CNS, 42.9 µM; in the assay with PC-3 prostate, over 100 µM; in the assay with HT29 colon, 32.4 µM. Further, the TGI with MDA-MB-231 breast is 31.8 µM; with IGROV1 ovarian it was over 100 µM; in the assay on RXF 393 renal, 26.8 µM; in the assay with MOLT-4 leukemia, 48.7 µM.

Regarding `CCOC(=O)/C(O)=C(\C=N\C(=S)Nc1ccc(Cl)c(Cl)c1)C(=O)OCC`, the TGI in the assay with NCI-H460 lung, in the assay with UACC-257 melanoma, in the assay with MDA-MB-435, with U251 CNS, with PC-3 prostate and in the assay on HT29 colon was over 100 µM each time. The TGI in the assay on MDA-MB-231 breast, in the assay with IGROV1 ovarian, in the assay with RXF 393 renal and with MOLT-4 leukemia was over 100 µM each time.
